The values below come from patent publication US20140005163A1 (NOVARTIS AG, priority 2010, published 2014).

One data set concerns the target T1, PI3K alpha (Homo sapiens, UniProt P42336).
T1 construct: p85(iSH2) fusion partner (see partner chain) (N); His tag (C); made in house; host or cells: baculovirus; Tn5 (Trichoplusia ni) or TiniPro insect cells
The experiment in a line: PI3K alpha kinase assay (Kinase-Glo luminescence). In kind it is biochemical. In outline: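 Luminescent ATP-depletion assay (Kinase-Glo) with 10 nM PI3Kα and 10 μg/mL phosphatidylinositol as lipid substrate at 1 μM ATP. Incubation lasts 60 min at room temperature.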
Background: In Kinase-Glo more light means more ATP remaining.

The target of another data set is T2, PI3K delta (Homo sapiens, UniProt O00329).
T2 construct: for the full-length p110-d subunit are generated and fused by overlapping PCR; p85(iSH2) fusion partner (see partner chain) (N); His tag (C); made in house; host or cells: baculovirus; Tn5 (Trichoplusia ni) or TiniPro insect cells
Briefly: PI3K delta kinase assay (Kinase-Glo luminescence). It counts as biochemical. In short, it runs like this: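 Inhibition is derived from luminescent detection of unconsumed ATP. The reaction runs for one hour at ambient temperature and contains the δ isoform fusion protein, phosphatidylinositol substrate and low (1 μM) ATP. Eight compound concentrations are tested in single, and a 4-parameter logistic model is used to calculate IC50.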

The next data set concerns the target T3, PI3K beta (Homo sapiens, UniProt P42338).
T3 construct: for the full-length p110-b subunit are generated and fused by overlapping PCR; p85(iSH2) fusion partner (see partner chain) (N); His tag (C); made in house; host or cells: baculovirus; Tn5 (Trichoplusia ni) or TiniPro insect cells
Briefly: PI3K beta kinase assay (Kinase-Glo luminescence). It counts as biochemical. In outline:
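IC50 is derived by four-parameter logistic curve fitting of Kinase-Glo luminescence, which measures ATP left after a 60 min room-temperature reaction. Conditions are 25 nM His-tagged p85(iSH2)-p110β, 1 μM ATP and 10 μg/mL bovine liver phosphatidylinositol.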

The next data set has as its target T4, mTOR (Homo sapiens, UniProt P42345).
T4 construct: purchased Invitrogen Corporation (Carlsbad/CA, USA) PV4753
The experiment in a line: Biochemical assay for m-TOR by TR-FRET. Conditions: 8 μM ATP, 400 nM GFP-4EBP1, 0.5 nM mTOR. In short, it runs like this: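 Enzyme 0.5 nM, GFP-4EBP1 400 nM, ATP 8 μM (all final); 50 mM HEPES pH 7.5, 10 mM MnCl2, 1 mM DTT; rt. Detection: Tb-α-p4EBP1 [pT46] 0.5 nM in EDTA, TR-FRET, 15 min. Reference compound on every plate, 16-point duplicate dilutions.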

The next data set is described as follows: Solubility at pH 6.8. It counts as physicochemical. The settings on record: pH 6.8, aqueous buffer, thermodynamic from solid; read-out: solubility. In short, it runs like this:
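Following the procedure of Zhou et al. (2007), compound solubility was determined at pH 6.8.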

pIC50: −log10 of the molar value. In brackets after ≈: the same amount, converted by molar mass.

T4 sequence (P42345 1360-2549 limits assumed): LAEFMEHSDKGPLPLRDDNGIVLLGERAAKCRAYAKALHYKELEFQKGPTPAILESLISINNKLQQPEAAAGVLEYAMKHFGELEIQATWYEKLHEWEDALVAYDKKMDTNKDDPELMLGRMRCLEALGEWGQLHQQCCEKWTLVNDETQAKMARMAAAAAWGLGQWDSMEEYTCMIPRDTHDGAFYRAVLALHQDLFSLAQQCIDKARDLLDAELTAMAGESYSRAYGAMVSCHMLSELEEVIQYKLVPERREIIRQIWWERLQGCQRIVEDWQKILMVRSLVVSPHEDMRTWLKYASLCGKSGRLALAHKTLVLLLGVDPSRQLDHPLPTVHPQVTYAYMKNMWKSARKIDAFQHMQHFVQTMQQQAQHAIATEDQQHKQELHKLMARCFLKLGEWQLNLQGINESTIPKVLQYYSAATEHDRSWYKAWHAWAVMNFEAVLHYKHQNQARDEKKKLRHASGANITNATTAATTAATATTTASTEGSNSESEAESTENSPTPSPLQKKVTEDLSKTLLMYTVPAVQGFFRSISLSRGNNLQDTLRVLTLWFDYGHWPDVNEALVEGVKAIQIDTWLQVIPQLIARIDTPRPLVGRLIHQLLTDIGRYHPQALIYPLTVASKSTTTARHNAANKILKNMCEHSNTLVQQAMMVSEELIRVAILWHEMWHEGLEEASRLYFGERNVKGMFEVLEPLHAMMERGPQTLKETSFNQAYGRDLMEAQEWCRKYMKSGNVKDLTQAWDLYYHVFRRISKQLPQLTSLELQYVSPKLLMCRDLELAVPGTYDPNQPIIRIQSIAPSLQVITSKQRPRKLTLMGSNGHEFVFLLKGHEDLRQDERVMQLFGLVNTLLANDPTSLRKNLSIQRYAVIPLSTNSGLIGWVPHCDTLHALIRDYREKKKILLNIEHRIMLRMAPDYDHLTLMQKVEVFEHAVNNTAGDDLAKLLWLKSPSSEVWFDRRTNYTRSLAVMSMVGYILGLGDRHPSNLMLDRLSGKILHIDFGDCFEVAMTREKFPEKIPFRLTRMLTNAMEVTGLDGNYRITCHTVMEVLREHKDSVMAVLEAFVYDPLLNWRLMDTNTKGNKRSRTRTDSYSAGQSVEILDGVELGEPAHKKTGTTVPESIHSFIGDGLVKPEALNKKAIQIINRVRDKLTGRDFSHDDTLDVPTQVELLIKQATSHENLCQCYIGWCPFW
T3 sequence (P42338 with tags, fused parts or gaps limits assumed): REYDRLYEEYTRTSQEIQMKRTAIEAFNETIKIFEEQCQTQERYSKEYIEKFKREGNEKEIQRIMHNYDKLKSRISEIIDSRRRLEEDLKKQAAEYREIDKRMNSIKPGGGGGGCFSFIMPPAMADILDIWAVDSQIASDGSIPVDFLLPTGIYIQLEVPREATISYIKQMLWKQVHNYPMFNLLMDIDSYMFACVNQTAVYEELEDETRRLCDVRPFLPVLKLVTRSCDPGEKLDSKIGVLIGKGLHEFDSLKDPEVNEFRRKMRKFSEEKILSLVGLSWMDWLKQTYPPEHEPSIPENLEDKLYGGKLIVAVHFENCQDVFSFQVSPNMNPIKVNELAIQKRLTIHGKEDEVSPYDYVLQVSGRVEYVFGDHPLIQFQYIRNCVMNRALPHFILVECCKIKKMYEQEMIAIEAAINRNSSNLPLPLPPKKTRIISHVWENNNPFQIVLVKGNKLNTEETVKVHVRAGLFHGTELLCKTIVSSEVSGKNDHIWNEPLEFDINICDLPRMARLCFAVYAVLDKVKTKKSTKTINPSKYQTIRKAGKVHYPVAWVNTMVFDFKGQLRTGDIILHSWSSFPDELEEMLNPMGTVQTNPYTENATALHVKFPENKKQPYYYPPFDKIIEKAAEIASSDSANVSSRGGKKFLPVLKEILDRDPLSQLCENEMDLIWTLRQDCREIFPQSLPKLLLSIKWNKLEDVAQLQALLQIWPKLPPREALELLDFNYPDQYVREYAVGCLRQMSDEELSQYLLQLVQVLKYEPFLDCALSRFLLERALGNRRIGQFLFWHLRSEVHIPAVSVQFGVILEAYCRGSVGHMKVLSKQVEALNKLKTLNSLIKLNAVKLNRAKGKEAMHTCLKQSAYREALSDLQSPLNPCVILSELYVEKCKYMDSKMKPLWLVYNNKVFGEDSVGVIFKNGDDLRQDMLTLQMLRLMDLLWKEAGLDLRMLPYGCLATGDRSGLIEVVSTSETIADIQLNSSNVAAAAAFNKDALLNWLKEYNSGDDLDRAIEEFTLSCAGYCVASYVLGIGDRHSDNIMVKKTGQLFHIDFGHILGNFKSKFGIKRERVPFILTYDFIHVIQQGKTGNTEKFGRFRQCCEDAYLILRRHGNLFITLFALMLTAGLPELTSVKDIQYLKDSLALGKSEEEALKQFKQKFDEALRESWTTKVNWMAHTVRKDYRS
T2 sequence (O00329 with tags, fused parts or gaps limits assumed): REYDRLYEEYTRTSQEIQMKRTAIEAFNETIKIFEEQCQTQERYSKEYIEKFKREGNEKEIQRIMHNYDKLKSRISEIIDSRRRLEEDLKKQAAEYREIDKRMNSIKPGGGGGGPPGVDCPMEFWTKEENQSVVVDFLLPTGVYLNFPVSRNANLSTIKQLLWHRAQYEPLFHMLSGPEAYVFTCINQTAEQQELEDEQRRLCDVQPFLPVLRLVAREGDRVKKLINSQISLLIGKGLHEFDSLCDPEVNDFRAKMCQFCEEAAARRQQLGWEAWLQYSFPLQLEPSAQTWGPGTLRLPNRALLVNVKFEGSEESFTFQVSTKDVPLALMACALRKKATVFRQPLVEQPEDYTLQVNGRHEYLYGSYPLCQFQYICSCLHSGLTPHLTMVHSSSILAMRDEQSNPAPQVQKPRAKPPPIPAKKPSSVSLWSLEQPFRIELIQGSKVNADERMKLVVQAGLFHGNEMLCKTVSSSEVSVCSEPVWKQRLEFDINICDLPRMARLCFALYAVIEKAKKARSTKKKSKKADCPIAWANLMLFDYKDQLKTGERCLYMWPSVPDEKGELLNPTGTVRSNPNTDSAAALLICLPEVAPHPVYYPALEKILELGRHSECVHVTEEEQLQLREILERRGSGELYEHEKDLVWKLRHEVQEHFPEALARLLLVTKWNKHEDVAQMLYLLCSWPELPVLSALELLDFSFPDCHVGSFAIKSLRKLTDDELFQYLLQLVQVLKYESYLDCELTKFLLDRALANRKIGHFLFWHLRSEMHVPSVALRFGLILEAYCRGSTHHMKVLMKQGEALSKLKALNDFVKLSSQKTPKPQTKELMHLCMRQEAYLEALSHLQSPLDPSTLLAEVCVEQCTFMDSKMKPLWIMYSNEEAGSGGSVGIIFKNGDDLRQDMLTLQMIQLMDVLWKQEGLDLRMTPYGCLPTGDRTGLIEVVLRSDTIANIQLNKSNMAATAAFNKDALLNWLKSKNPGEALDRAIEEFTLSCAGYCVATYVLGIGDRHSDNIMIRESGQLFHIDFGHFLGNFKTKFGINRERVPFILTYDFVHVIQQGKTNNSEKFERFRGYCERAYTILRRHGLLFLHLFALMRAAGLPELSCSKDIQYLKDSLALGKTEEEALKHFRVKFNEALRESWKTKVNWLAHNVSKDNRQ
T1 sequence (P42336 with tags, fused parts or gaps limits assumed): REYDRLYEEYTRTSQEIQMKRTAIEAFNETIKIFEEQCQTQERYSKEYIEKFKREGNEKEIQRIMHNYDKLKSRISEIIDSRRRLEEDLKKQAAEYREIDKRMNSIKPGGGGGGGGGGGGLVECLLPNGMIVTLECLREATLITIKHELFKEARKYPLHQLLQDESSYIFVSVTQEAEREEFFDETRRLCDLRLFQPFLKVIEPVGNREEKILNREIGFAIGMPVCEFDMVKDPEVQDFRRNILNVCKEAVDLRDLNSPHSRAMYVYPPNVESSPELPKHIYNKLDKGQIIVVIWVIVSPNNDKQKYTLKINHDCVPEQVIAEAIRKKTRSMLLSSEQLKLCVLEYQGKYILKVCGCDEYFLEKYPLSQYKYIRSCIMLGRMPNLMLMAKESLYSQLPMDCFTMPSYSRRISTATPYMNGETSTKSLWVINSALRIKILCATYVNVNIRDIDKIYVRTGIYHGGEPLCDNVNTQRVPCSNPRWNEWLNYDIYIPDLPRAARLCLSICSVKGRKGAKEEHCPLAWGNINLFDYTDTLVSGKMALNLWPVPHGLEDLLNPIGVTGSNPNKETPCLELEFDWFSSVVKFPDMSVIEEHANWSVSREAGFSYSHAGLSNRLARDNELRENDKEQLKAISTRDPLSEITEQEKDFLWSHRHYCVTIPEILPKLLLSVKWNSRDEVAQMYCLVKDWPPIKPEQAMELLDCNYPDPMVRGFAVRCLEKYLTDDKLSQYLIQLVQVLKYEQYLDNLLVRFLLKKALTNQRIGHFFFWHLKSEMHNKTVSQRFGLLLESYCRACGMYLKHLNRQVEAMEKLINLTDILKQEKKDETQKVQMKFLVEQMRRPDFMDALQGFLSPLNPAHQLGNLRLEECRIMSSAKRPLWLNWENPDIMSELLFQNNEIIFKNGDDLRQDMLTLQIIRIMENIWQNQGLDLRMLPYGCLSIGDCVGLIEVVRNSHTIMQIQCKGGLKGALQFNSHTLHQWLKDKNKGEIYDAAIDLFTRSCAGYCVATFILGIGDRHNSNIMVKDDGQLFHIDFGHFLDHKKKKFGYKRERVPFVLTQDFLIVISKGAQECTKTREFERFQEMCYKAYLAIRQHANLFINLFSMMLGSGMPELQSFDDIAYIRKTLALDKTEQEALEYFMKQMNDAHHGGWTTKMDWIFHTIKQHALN

The term pIC50 denotes the IC50 on a negative log10 scale, so that one unit is a factor of ten. For orientation: solubility means the concentration that dissolves in the medium under given conditions. For `Cc1cnn(C)c1-n1c(=O)n(C)c2cnc3ccc(-c4cncc(OC(C)C)c4)cc3c21` [Example 58.3, 1-(2,4-Dimethyl-2H-pyrazol-3-yl)-8-(5-isopropoxy-pyridin-3-yl)-3-methyl-1,3-dihydro-imidazo[4,5-c]quinolin-2-one], the pIC50 at PI3K alpha is 6.63; on PI3K delta, 6.93; on PI3K beta, 6.69; at mTOR, 6.25. Moreover, in the data set “Solubility at pH 6.8”, the solubility is 6 µg/mL (≈ 14 µM).
On the same counts, the results for `CCn1cc(-n2c(=O)n(C)c3cnc4ccc(-c5cnc(COC)c(OC(C)C)c5)cc4c32)c(C)n1` [Example 191.2, 1-(1-Ethyl-3-methyl-1H-pyrazol-4-yl)-8-(5-isopropoxy-6-methoxymethyl-pyridin-3-yl)-3-methyl-1,3-dihydro-imidazo[4,5-c]quinolin-2-one] are 7.89, 7.96, 6.75, 7.47 and 243 µg/mL (≈ 499 µM).
On the same counts, the results for `Cc1nn(C)cc1-n1c(=O)n(C)c2cnc3ccc(-c4cnc5ccn(C)c5c4)cc3c21` [Example 129, 1-(1,3-Dimethyl-1H-pyrazol-4-yl)-3-methyl-8-(1-methyl-1H-pyrrolo[3,2-b]pyridin-6-yl)-1,3-dihydro-imidazo[4,5-c]quinolin-2-one] are 7.92, 8.05, 7.47, 8.30 and 21 µg/mL (≈ 49.6 µM).
For `CNC(=O)c1ccc(-c2ccc3ncc4c(c3c2)n(-c2c(C)nn(C)c2C)c(=O)n4C)cn1` [Example 15.2, 5-[3-Methyl-2-oxo-1-(1,3,5-trimethyl-1H-pyrazo1-4-yl)-2,3-dihydro-1H-imidazo[4,5-c]quinolin-8-yl]-pyridine-2-carboxylic acid methylamide] the same measures were 6.60, 6.09, 6.01, 6.47 and 71 µg/mL (≈ 161 µM).
On to `CCOc1cc(-c2ccc3ncc4c(c3c2)n(-c2cn(C)nc2C)c(=O)n4C)cnc1CC` [Example 187, 1-(1,3-Dimethyl-1H-pyrazol-4-yl)-8-(5-ethoxy-6-ethyl-pyridin-3-yl)-3-methyl-1,3-dihydro-imidazo[4,5-c]quinolin-2-one], for which the negative logarithm of the IC50 (pIC50) is 7.82 on PI3K alpha, 8.10 on PI3K delta, 7.55 on PI3K beta and 8.10 at mTOR. In addition, the solubility in “Solubility at pH 6.8” amounted to 3 µg/mL (≈ 6.78 µM).
Consider `CNc1ncc(-c2ccc3ncc4c(c3c2)n(-c2c(C)nn(C)c2C)c(=O)n4C)cc1C(F)(F)F` [Example 144.1, 3-Methyl-8-(6-methylamino-5-trifluoromethyl-pyridin-3-yl)-1-(1,3,5-trimethyl-1H-pyrazol-4-yl)-1,3-dihydro-imidazo[4,5-c]quinolin-2-one], for which the negative logarithm of the IC50 (pIC50) is 7.44 at PI3K alpha, 7.89 on PI3K delta, 7.10 on PI3K beta and 6.56 at mTOR. In addition, in the data set “Solubility at pH 6.8”, the solubility is above 481 µg/mL.
In the case of `COc1ncc(-c2ccc3ncc4c(c3c2)n(-c2cn(C)nc2Cl)c(=O)n4C)cc1N` [Example 89, 8-(5-Amino-6-methoxy-pyridin-3-yl)-1-(3-chloro-1-methyl-1H-pyrazol-4-yl)-3-methyl-1,3-dihydro-imidazo[4,5-c]quinolin-2-one], the negative logarithm of the IC50 (pIC50) on PI3K alpha was 7.74; at PI3K delta, 8.05; at PI3K beta, 7.64; at mTOR, 8.52. The solubility in the data set “Solubility at pH 6.8” was found to be 3 µg/mL (≈ 6.88 µM).
On the same counts, the results for `COc1ccc(-c2ccc3ncc4c(c3c2)n(-c2cn(C(C)C)nc2C)c(=O)n4C)cc1OC` [Example 1.5, 8-(3,4-Dimethoxy-phenyl)-1-(1-isopropyl-3-methyl-1H-pyrazol-4-yl)-3-methyl-1,3-dihydro-imidazo[4,5-c]quinolin-2-one] are 8.00, 8.15, 7.00, 7.21 and 5 µg/mL (≈ 10.9 µM).
On the same counts, the results for `CCOc1ccc(-c2ccc3ncc4c(c3c2)n(-c2c(C)nn(C)c2C)c(=O)n4C)cc1OCC` [Example 27.2, 8-(3,4-Diethoxy-phenyl)-3-methyl-1-(1,3,5-trimethyl-1H-pyrazol-4-yl)-1,3-dihydro-imidazo[4,5-c]quinolin-2-one] are 7.32, 7.30, 6.76, 6.44 and 4 µg/mL (≈ 8.48 µM).
As for `CCc1ncc(-c2ccc3ncc4c(c3c2)n(-c2cn(C)nc2C)c(=O)n4C)cc1N` [Example 208, 8-(5-Amino-6-ethyl-pyridin-3-yl)-1-(1,3-dimethyl-1H-pyrazol-4-yl)-3-methyl-1,3-dihydro-imidazo[4,5-c]quinolin-2-one], the pIC50 at PI3K alpha is 7.82; on PI3K delta it was 8.22; on PI3K beta it was 7.12; at mTOR, 8.15. For the same compound, in the data set “Solubility at pH 6.8”, the solubility came to 133 µg/mL (≈ 322 µM).
As for `Cc1nn(C)cc1-n1c(=O)n(C)c2cnc3ccc(-c4cncc(C5(C#N)CCC5)c4)cc3c21` [Example 221.1, 1-{5-[1-(1,3-Dimethyl-1H-pyrazol-4-yl)-3-methyl-2-oxo-2,3-dihydro-1H-imidazo[4,5-c]quinolin-8-yl]-pyridin-3-yl}-cyclobutanecarbonitrile], the negative-log IC50 (pIC50) at PI3K alpha is 7.85; at PI3K delta it was 8.22; at PI3K beta, 7.64; on mTOR, 7.49. Moreover, in “Solubility at pH 6.8”, the solubility came out at 21 µg/mL (≈ 46.7 µM).
Consider `CCOc1cc(-c2ccc3ncc4c(c3c2)n(-c2c(C)nn(CC(=O)N(C)C)c2C)c(=O)n4C)cnc1C` [Example 85.3, 2-{4-[8-(5-Ethoxy-6-methyl-pyridin-3-yl)-3-methyl-2-oxo-2,3-dihydro-imidazo[4,5-c]quinolin-1-yl]-3,5-dimethyl-pyrazol-1-yl}-N,N-dimethyl-acetamide], for which the pIC50 was 7.47 on PI3K alpha, 7.34 on PI3K delta, 6.32 at PI3K beta and 6.48 at mTOR. Besides, the solubility in the data set “Solubility at pH 6.8” amounted to 76 µg/mL (≈ 148 µM).
Consider `CCOc1ccc(-c2ccc3ncc4c(c3c2)n(-c2cn(C(C)C)nc2C)c(=O)n4C)cn1` [Example 3.7, 8-(6-Ethoxy-pyridin-3-yl)-1-(1-isopropyl-3-methyl-1H-pyrazol-4-yl)-3-methyl-1,3-dihydro-imidazo[4,5-c]quinolin-2-one], for which the pIC50 was 7.21 at PI3K alpha, 7.37 on PI3K delta, 6.27 at PI3K beta and 7.64 on mTOR. The solubility in “Solubility at pH 6.8” is 3 µg/mL (≈ 6.78 µM).
For `CCNc1cc(-c2ccc3ncc4c(c3c2)n(-c2cn(CC)nc2C)c(=O)n4C)cnc1C` [Example 87.3, 8-(5-Ethylamino-6-methyl-pyridin-3-yl)-1-(1-ethyl-3-methyl-1H-pyrazol-4-yl)-3-methyl-1,3-dihydro-imidazo[4,5-c]quinolin-2-one], the negative logarithm of the IC50 (pIC50) was 8.05 at PI3K alpha, 8.22 on PI3K delta, 7.92 at PI3K beta and above 8.52 at mTOR. In addition, the solubility in “Solubility at pH 6.8” is above 442 µg/mL.
Turning to `CCNc1cc(-c2ccc3ncc4c(c3c2)n(-c2cn(C)nc2Cl)c(=O)n4C)cnc1C` [Example 87.2, 1-(3-Chloro-1-methyl-1H-pyrazol-4-yl)-8-(5-ethylamino-6-methyl-pyridin-3-yl)-3-methyl-1,3-dihydro-imidazo[4,5-c]quinolin-2-one], the negative-log IC50 (pIC50) at PI3K alpha is 7.52; at PI3K delta, 7.72; at PI3K beta, 7.66; on mTOR it was above 8.52. Also, the solubility in “Solubility at pH 6.8” came out at 222 µg/mL (≈ 496 µM).
On to `Cc1nn(C)cc1-n1c(=O)n(C)c2cnc3ccc(-c4ccc(N5CCNCC5)nc4)cc3c21` [Example 126, 1-(1,3-Dimethyl-1H-pyrazol-4-yl)-3-methyl-8-(6-piperazin-1-yl-pyridin-3-yl)-1,3-dihydro-imidazo[4,5-c]quinolin-2-one], for which the pIC50 was 7.29 at PI3K alpha, 6.99 at PI3K delta, 6.10 at PI3K beta and 7.01 on mTOR. The solubility in the data set “Solubility at pH 6.8” was above 455 µg/mL.
